Patent publication EP0321364A2, “Orally administrable cephalosporin derivatives, and the production and uses thereof” (ZAIDAN HOJIN BISEIBUTSU KAGAKU KENKYU KAI, priority 1987, dated 1989)
≈ marks a conversion by molar mass, not a printed value. Like-named read-outs stand apart in the source and are kept apart here.

Assays:
[1] = system: Bacillus subtilis ATCC6633; test: MIC, serial dilution method in Müller-Hinton agar; assay type: cell-based; conditions: 37°C, 18 hours
Experimental: (§1) The antibacterial activities of the cephalosporin compounds of the formula (I) according to this invention, specifically the final product compounds of the Examples 1 to 6 given hereinafter, were assayed in term of their minimum inhibitory concentrations (MIC; mcg/ml) against various test bacteria, as determined according to a standard serial dilution method in Müller-Hinton agar medium (a product of Difico company), where the incubation was made at 37°C for 18 hours. For the comparison purpose, the antibacterial spectrum of a known compound, Cefalexin (abbreviated as CEX) was also assayed in the same way as above.

[2] = system: Escherichia coli K-12 C600; test: MIC, serial dilution method in Müller-Hinton agar; assay type: cell-based; conditions: Escherichia coli, K12C600, 18 h
Experimental: as §1

[3] = system: Escherichia coli NIHJ-JS-2; test: MIC, serial dilution method in Müller-Hinton agar; assay type: cell-based; conditions: Escherichia coli, NIHJJS2, 18 h
Experimental: as §1

[4] = system: Klebsiella oxytosa GN10560; test: MIC, serial dilution method in Müller-Hinton agar; assay type: cell-based; conditions: Klebsiella oxytosa GN10560, cefuroximase producing strain, 37°C, 18 hours
Experimental: as §1

[5] = system: Klebsiella pneumoniae PCI602; test: MIC, serial dilution method in Müller-Hinton agar; assay type: cell-based; conditions: Klebsiella pneumoniae, PCI602, 18 h
Experimental: as §1

[6] = system: Micrococcus luteus ATCC9341; test: MIC, serial dilution method in Müller-Hinton agar; assay type: cell-based; conditions: 37°C, 18 hours
Experimental: as §1

Proteus morganii IFO3848 = test: MIC, serial dilution method in Müller-Hinton agar; assay type: cell-based; conditions: Morganella morganii; Proteus morganii IFO3848; Müller-Hinton agar, 37°C, 18 hours; read-out: MIC
Experimental: as §1

Proteus rettgeri IFO3850 = test: MIC, serial dilution method in Müller-Hinton agar; assay type: cell-based; conditions: Providencia rettgeri
Experimental: as §1

Proteus vulgaris OX-19 = test: MIC, serial dilution method in Müller-Hinton agar; assay type: cell-based; conditions: OX19, 37°C, 18 hours
Experimental: as §1

[7] = system: Pseudomonas aeruginosa IFO3445; test: MIC, serial dilution method in Müller-Hinton agar; assay type: cell-based; conditions: 37°C, 18 hours
Experimental: as §1

[8] = system: Rms139/MI Pseudomonas aeruginosa; test: MIC, serial dilution method in Müller-Hinton agar; assay type: cell-based; conditions: 18 h
Experimental: as §1

[9] = system: Rms212/Escherichia coli K-12 W3630; test: MIC, serial dilution method in Müller-Hinton agar; assay type: cell-based; conditions: 18 h
Experimental: as §1

[10] = system: Rms213/Escherichia coli K-12 W3630; test: MIC, serial dilution method in Müller-Hinton agar; assay type: cell-based; conditions: 18 h
Experimental: as §1

[11] = system: Rms823/Escherichia coli K-12 W3630; test: MIC, serial dilution method in Müller-Hinton agar; assay type: cell-based; conditions: 18 h
Experimental: as §1

[12] = system: Rte16/Escherichia coli K-12 W3630; test: MIC, serial dilution method in Müller-Hinton agar; assay type: cell-based; conditions: 18 h
Experimental: as §1

[13] = system: Salmonella enteritidis G14; test: MIC, serial dilution method in Müller-Hinton agar; assay type: cell-based; conditions: Salmonella enterica
Experimental: as §1

[14] = system: Salmonella paratyphi 1015; test: MIC, serial dilution method in Müller-Hinton agar; assay type: cell-based; conditions: Salmonella enterica, 37°C, 18 hours
Experimental: as §1

[15] = system: Salmonella schottmulleri 8006; test: MIC, serial dilution method in Müller-Hinton agar; assay type: cell-based; conditions: 37°C, 18 hours
Experimental: as §1

Salmonella typhi 901 = test: MIC, serial dilution method in Müller-Hinton agar; assay type: cell-based; conditions: Salmonella enterica, 18 h
Experimental: as §1

[16] = system: Salmonella typhimurium IID971; test: MIC, serial dilution method in Müller-Hinton agar; assay type: cell-based; conditions: Salmonella enterica, 18 h
Experimental: as §1

[17] = system: Staphylococcus aureus FDA209P JC-1; test: MIC, serial dilution method in Müller-Hinton agar; assay type: cell-based
Experimental: as §1

[18] = system: Staphylococcus aureus MS353; test: MIC, serial dilution method in Müller-Hinton agar; assay type: cell-based
Experimental: as §1

[19] = system: Staphylococcus aureus Terajima; test: MIC, serial dilution method in Müller-Hinton agar; assay type: cell-based; conditions: 37°C, 18 hours
Experimental: as §1

[20] = Test 1: urinary recovery after oral administration; assay type: in vivo; conditions: mice (ICR-strain, female), 300 mcg per mouse, urine collected until 5 hours after administration, microbial assay, molar percentage
Experimental: To mice (ICR-strain, female, 4 weeks-aged) was orally administered a new cephalosporin compound according to this invention at a dosage of 300 mcg per mouse. Until the end of 5 hours after oral administration of the test cephalosporin compound, all the volumes of urine discharged by the treated mice were collected together, and the total amount of the test compound remaining in the collected urine was measured by a microbial assay method. The urinary recovery of the test compound was calculated in terms of percentage of the molar quantity of the test compound as recovered, against the molar quantity of the test compound as orally given.

[21] = Proteus rettgeri IFO3850, Müller-Hinton agar, 37°C, 18 hours, read-out: MIC
[22] = Salmonella enteritidis G14, Müller-Hinton agar, 37°C, 18 hours, read-out: MIC
[23] = Staphylococcus aureus FDA209P JC-1, Müller-Hinton agar, 37°C, 18 hours, read-out: MIC
[24] = Staphylococcus aureus MS353, Müller-Hinton agar, 37°C, 18 hours, read-out: MIC

Row | Structure (SMILES) | MIC [1] | MIC [2] | MIC [3] | MIC [4] | MIC [5] | MIC [6] | MIC (Proteus morganii IFO3848) | MIC (Proteus rettgeri IFO3850; [21]) | MIC (Proteus vulgaris OX-19) | MIC [7] | MIC [8] | MIC [9] | MIC [10] | MIC [11] | MIC [12] | MIC [14] | MIC [15] | MIC (Salmonella typhi 901) | MIC [16] | MIC [19] | also measured
1 | CC1=C(C(=O)O)N2C(=O)[C@@H](NC(=O)[C@H](N)c3ccccc3)[C@H]2SC1 [CEX, Cefalexin, reference compound] | 0.78 µg/mL (≈ 2.25 µM) | 6.25 µg/mL (≈ 18 µM) | 6.25 µg/mL (≈ 18 µM) | > 100 µg/mL | 3.13 µg/mL (≈ 9.01 µM) | 0.1 µg/mL (≈ 0.288 µM) | 25 µg/mL (≈ 72 µM) | 12.5 µg/mL (≈ 36 µM) | 12.5 µg/mL (≈ 36 µM) | > 100 µg/mL | > 100 µg/mL | 12.5 µg/mL (≈ 36 µM) | 12.5 µg/mL (≈ 36 µM) | 12.5 µg/mL (≈ 36 µM) | 12.5 µg/mL (≈ 36 µM) | 6.25 µg/mL (≈ 18 µM) | 6.25 µg/mL (≈ 18 µM) | 3.13 µg/mL (≈ 9.01 µM) | 6.25 µg/mL (≈ 18 µM) | 0.2 µg/mL (≈ 0.576 µM) | MIC [13, 22]: > 100 µg/mL; MIC ([17]; Staphylococcus aureus, FDA209P, 18 h): 3.13 µg/mL (≈ 9.01 µM); MIC ([18]; Staphylococcus aureus, MS353, 18 h): 3.13 µg/mL (≈ 9.01 µM)
2 | CC1=C(C(=O)O)N2C(=O)C(NC(=O)[C@H](N)c3ccc(CO)c(O)c3)[C@H]2SC1 (stereo partly drawn) [Example 1 Compound, 7-{(R)-2-amino-2-(3-hydroxy-4-hydroxymethylphenyl)acetamido}-3-methyl-3-cephem-4-carboxylic acid] | 0.78 µg/mL (≈ 1.98 µM) | 12.5 µg/mL (≈ 31.8 µM) | 12.5 µg/mL (≈ 31.8 µM) | 100 µg/mL (≈ 254 µM) | 6.25 µg/mL (≈ 15.9 µM) | 0.1 µg/mL (≈ 0.254 µM) | > 100 µg/mL | – | 100 µg/mL (≈ 254 µM) | > 100 µg/mL | > 100 µg/mL | 12.5 µg/mL (≈ 31.8 µM) | 12.5 µg/mL (≈ 31.8 µM) | 100 µg/mL (≈ 254 µM) | 12.5 µg/mL (≈ 31.8 µM) | 12.5 µg/mL (≈ 31.8 µM) | 12.5 µg/mL (≈ 31.8 µM) | 6.25 µg/mL (≈ 15.9 µM) | 6.25 µg/mL (≈ 15.9 µM) | 0.2 µg/mL (≈ 0.508 µM) | MIC (Proteus rettgeri IFO3850; IFO3850, 18 h): 12.5 µg/mL (≈ 31.8 µM); MIC [13, 22]: 50 µg/mL (≈ 127 µM); MIC [17, 23]: 3.13 µg/mL (≈ 7.96 µM); MIC [18, 24]: 3.13 µg/mL (≈ 7.96 µM); dose excreted [20]: 65.1%
3 | COCC1=C(C(=O)O)N2C(=O)C(NC(=O)[C@H](N)c3ccc(CO)c(O)c3)[C@H]2SC1 (stereo partly drawn) [Example 2 Compound, 7-{(R)-2-amino-2-(3-hydroxy-4-hydroxymethylphenyl)acetamido}-3-methoxymethyl-3-cephem-4-carboxylic acid] | 0.2 µg/mL (≈ 0.472 µM) | 12.5 µg/mL (≈ 29.5 µM) | 12.5 µg/mL (≈ 29.5 µM) | > 100 µg/mL | 6.25 µg/mL (≈ 14.8 µM) | 0.1 µg/mL (≈ 0.236 µM) | 50 µg/mL (≈ 118 µM) | 25 µg/mL (≈ 59 µM) | 100 µg/mL (≈ 236 µM) | > 100 µg/mL | > 100 µg/mL | 50 µg/mL (≈ 118 µM) | 12.5 µg/mL (≈ 29.5 µM) | > 100 µg/mL | 25 µg/mL (≈ 59 µM) | 12.5 µg/mL (≈ 29.5 µM) | 6.25 µg/mL (≈ 14.8 µM) | 6.25 µg/mL (≈ 14.8 µM) | 6.25 µg/mL (≈ 14.8 µM) | 0.2 µg/mL (≈ 0.472 µM) | MIC ([13]; ENTERITIDIS, 18 h): 6.25 µg/mL (≈ 14.8 µM); MIC [17, 23]: 1.56 µg/mL (≈ 3.68 µM); MIC [18, 24]: 1.56 µg/mL (≈ 3.68 µM); dose excreted [20]: 48.3%
